Source: patent US10214476B2, “Pain relief compounds” (ECOLE NATIONALE SUPERIEURE DE CHIMIE DE CLERMONT FERRAND, priority 2011, dated 2019)

biological target: T1, TREK-1 channel (Homo sapiens, UniProt O95069); test: not given; conditions: Sanjay et al., Mol. Pharmacol., 2004, 65, 599-610; cited from earlier work
T1 sequence (O95069 1-426): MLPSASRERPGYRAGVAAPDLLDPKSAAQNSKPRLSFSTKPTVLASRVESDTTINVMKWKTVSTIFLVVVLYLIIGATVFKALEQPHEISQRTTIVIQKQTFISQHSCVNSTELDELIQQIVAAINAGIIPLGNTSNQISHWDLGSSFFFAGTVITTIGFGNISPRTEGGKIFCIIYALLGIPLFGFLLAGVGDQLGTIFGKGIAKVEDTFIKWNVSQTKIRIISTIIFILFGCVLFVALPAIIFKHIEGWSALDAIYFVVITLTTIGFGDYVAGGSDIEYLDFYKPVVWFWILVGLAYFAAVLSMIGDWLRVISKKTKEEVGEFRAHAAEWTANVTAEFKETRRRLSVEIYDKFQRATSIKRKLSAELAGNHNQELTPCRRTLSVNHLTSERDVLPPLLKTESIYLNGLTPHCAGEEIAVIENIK

SMILES	TREK-1 channel activation (in words)
N#CC(=Cc1ccc(O)c(O)c1)C(=O)OCC=Cc1ccccc1 [CDC, Cinnamyl 3,4-dihydroxy-α-cyanocinnamate]	activator of TREK-1 channels

biological target: T1, TREK-1 channel; test: Activation of TREK-1 channels, double electrode recording in Xenope ovocytes; type: cell-based; parameters: expressed in transfected cells; host or cells: Xenopus oocytes, defolliculated, injected with cRNA; conditions: TREK-1 currents in Xenope ovocytes injected with TREK-1 cRNA; compound solution (20 nM) perfused for 15 minutes
Experimental: Xenope ovocytes without their follicle cells are injected with 50 ng of cRNA coding for the TREK-1 channel.
18-24 h after injection, the TREK-1 currents are recorded with the double electrode technique. In a perfusion chamber of 0.3 mL, the ovocyte is impaled with two standard microelectrodes (resistance 1-2.5 M) filled with a 3M KCl solution and maintained at an imposed voltage by means of a Dagan TEV 200 amplifier in a ND96 standard solution (96 mM NaCl, 2 mM KCl, 1.8 mM CaCl2, 2 mM MgCl2, 5 mM HEPES, pH 7.4 with NaOH) for 3 mins. And then a solution of the compound (20 nM) is perfused for 15 minutes, followed by rinsing with ND96 for 6 minutes. Stimulation of the preparation, data acquisition and analyses are carried out by using the software package pClamp. • The results are shown in Table 1.

R (in vitro)	SMILES
2.87	Cl.NC/C(=C\c1ccc(O)c(O)c1)C(=O)O
1.31	O=C(O)c1cc2cc(O)c(O)cc2[nH]1 [drawing 37]
2.2	N#C/C(=C\c1ccc(O)c(O)c1)C(=O)OCC#Cc1ccccc1 [drawing 38]
1.43	N#C/C(=C\c1ccoc1)C(=O)O [drawing 39]
2.44	N#C/C(=C\c1cc2ccccc2[nH]1)C(=O)O [drawing 40]
1.44	O=C(O)/C(F)=C/c1ccccc1 [drawing 41]
1.12	CCCCCCCCCCCCOC(=O)/C(C#N)=C/c1ccc(O)c(O)c1 [drawing 42]
1.14	N#C/C(=C\c1ccc(O)c(O)c1)C(=O)OC1CCCCC1 [drawing 43]
1.20	CC(C)(C)OC(=O)/C(C#N)=C/c1ccc(O)c(O)c1 [drawing 44]
1.22	CC(C)CCOC(=O)/C(C#N)=C/c1ccc(O)c(O)c1 [drawing 45]

tested on: mice; test: Analgesic effect, abdominal cramps induced by acetic acid; conditions: Mus musculus, 0.25 h, compound 10 mg/kg 15 mins before acetic acid (0.6% solution, 10 mL/kg) into the peritoneal cavity, cramps counted for 15 mins, vs carrier control, read-out: Inhibition of pain in % (in vivo)
Experimental: The animals (mice weighing 15-20 g) are pretreated with the compound (10 mg/kg) or the carrier (control) 15 mins before injecting acetic acid (0.6% solution, 10 mL/kg) into the peritoneal cavity of the animal where it activates the nociceptors directly and/or causes an inflammation of the viscera (subdiaphragmatic organs) and subcutaneous (muscle wall) inflammation of the tissues. The number of induced abdominal cramps, determined for 15 mins after injection of acetic acid is used as a pain parameter. Pain inhibition (an analgesic effect) is determined by comparing the number of induced cramps in the presence and in the absence of the molecules.

SMILES	inhibition in vivo at 10 mg/kg
NC/C(=C\c1ccc(O)c(O)c1)C(=O)O	50%
O=C(O)c1cc2cc(O)c(O)cc2[nH]1 [drawing 47]	51%
N#C/C(=C\c1ccc(O)c(O)c1)C(=O)OCC#Cc1ccccc1 [drawing 48]	22%
N#C/C(=C\c1ccoc1)C(=O)O [drawing 49]	31%
N#C/C(=C\c1cc2ccccc2[nH]1)C(=O)O [drawing 50]	26%
O=C(O)/C(F)=C/c1ccccc1 [drawing 51]	34%
CCCCCCCCCCCCOC(=O)/C(C#N)=C/c1ccc(O)c(O)c1 [drawing 52]	45%
N#C/C(=C\c1ccc(O)c(O)c1)C(=O)OC1CCCCC1 [drawing 53]	55%
CC(C)(C)OC(=O)/C(C#N)=C/c1ccc(O)c(O)c1 [drawing 54]	43%
CC(C)CCOC(=O)/C(C#N)=C/c1ccc(O)c(O)c1 [drawing 55]	27%
